Experimental data as given in patent publication US8716287B2, “Pharmaceutical compounds” (Sentinel Oncology Limited, priority 2010, dated 2014).
“Also recorded” adds a separate entry of the source. Where a name gives a salt, the structure may show the parent alone. Read-outs that look alike come from different tables or passages of the source.

How the values were obtained:
[1] = target: Chk-1 kinase (Homo sapiens (Human), UniProt O14757); assay: Chk-1 kinase inhibiting activity (33P-ATP filter assay, CHKtide substrate); type: biochemical
Experimental: The compounds of the invention were tested for activity against Chk-1 kinase using the materials and protocols set out below.
Base Reaction buffer: 20 mM Hepes (pH 7.5), 10 mM MgCl2, 1 mM EGTA, 0.02% Brij35, 0.02 mg/ml BSA, 0.1 mM Na3VO4, 2 mM DTT, 1% DMSO
*Required cofactors are added individually to each kinase reaction
(i) Prepare indicated substrate in freshly prepared Base Reaction Buffer
(ii) Deliver any required cofactors to the substrate solution above
(iii) Deliver indicated kinase into the substrate solution and gently mix
(iv) Deliver compounds in DMSO into the kinase reaction mixture
(v) Deliver ^33P-ATP (specific activity 0.01 μCi/μl final) into the reaction mixture to initiate the reaction.
(vi) Incubate kinase reaction for 120 minutes at room temperature
(vii) Reactions are spotted onto P81 ion exchange paper (Whatman #3698-915)
(viii) Wash filters extensively in 0.1% phosphoric acid.
(ix) Dry filters and measure counts in scintillation counter
Recombinant full length construct, N-terminal GST tagged, purified from insect cells.
No special measures were taken to activate this kinase.
Final concentration in assay=0.5 nM
Peptide sequence: [[…]]
Final concentration in assay=20 μM
No additional cofactors are added to the reaction mixture

[2] = tested on: HT29 cells; assay: Sensitisation of HT29 cells to SN38 (Alamar blue cell growth); type: cell-based, human; details: for Cell potentiation factor: SN38 sensitisation assay in HT-29 cells, compound at 3 μM; for fold shift in the IC50 value of SN38: HT29 cells
Experimental: Studies were carried out to test the sensitising effect of compounds of the invention on the ability of the DNA damaging compound 7-ethyl-10-hydroxycamptothecin (SN38), an active metabolite of the anti-cancer drug irinotecan, to inhibit cell growth in HT29 cells.
The following protocol was used:
(a) HT29 cells were seeded in 96-well plates at a concentration of 3000 cells per well and allowed to adhere overnight prior to addition of compound or vehicle control.
(b) SN38 was prepared from a 10 mM DMSO stock to give a final concentration range of 1 μM, 300 nM, 100 nM, 30 nM, 10 nM, 3 nM, 1 nM, and vehicle control.
(c) Test compounds were prepared from 10 mM DMSO stocks to typically give a final concentration range of 3 μM, 1 μM, 0.3 μM. 0.1 μM, 0.03 μM and vehicle control. The final DMSO content was 0.4%.
(d) Test compounds were incubated with the cells for 72 h at 37° C. 5% CO2 in a humidified atmosphere.
(e) Alamar blue 10% (v/v) was then added and incubated for a further 6 h, and fluorescent product detected using the BMG FLUOstar plate reader.
(f) Data were analysed using a 4-parameter logistic equation in GraphPad Prism.
Sensitisation is determined by the enhancement in IC50 of SN38 by the addition of the Chk-1 kinase inhibitor. In the protocol described above, the IC50 for SN-38 is determined the presence of varying doses of the Chk-1 inhibitor. The fold shift represents a decrease in IC50 for SN-38 at a dose of Chk-1 inhibitor that has no effect by itself.

[3] = comparative tests, Example 70, read-out: Chk-1 IC50
[4] = Chk-1 kinase, Table 3, read-out: IC50
[5] = ranges given, read-out: IC50 values against Chk-1 kinase

Sequence of Chk-1 kinase (O14757 whole entry): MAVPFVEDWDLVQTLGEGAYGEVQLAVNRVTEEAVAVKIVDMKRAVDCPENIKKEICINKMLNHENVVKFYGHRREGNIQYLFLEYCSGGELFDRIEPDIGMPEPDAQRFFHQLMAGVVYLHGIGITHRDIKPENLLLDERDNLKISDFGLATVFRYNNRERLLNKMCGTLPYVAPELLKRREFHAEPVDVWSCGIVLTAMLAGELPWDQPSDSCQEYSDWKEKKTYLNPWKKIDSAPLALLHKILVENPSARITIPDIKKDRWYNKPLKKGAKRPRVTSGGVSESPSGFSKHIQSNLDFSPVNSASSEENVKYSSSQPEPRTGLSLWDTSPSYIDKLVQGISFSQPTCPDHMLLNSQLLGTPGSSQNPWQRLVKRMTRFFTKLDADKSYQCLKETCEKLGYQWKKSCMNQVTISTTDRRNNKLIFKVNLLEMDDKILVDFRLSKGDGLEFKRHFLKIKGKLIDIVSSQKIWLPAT

Row | IC50 [1, 4] [nM] | IC50 [1, 5] [nM] | Compound | further results
1 | – | – | COc1cc(CNCc2ccccc2)ccc1NC(=O)Nc1cnc(C)cn1 [Compound 338, reference compound] | IC50 [1, 3]: 99 nM; Cell potentiation factor [2]: 5 fold
2 | 200 | 100 to 1000 | N#Cc1cnc(NC(=O)Nc2ccc(CCNCc3ccccc3)cc2)cn1 [Example 1, 1-[4-(2-Benzylamino-ethyl)-phenyl]-3-(5-cyano-pyrazin-2-yl)-urea] | IC50 [1, 3]: 99 nM; fold improvement in potency against Chk-1 enzyme ([1]; relative to Example 30 (alkylene chain 1 to 2 carbon atoms)): ~3 fold; fold shift in the IC50 value of SN38 ([2]; test compound at 3 μM): three; Cell potentiation factor [2]: 4 fold
3 | 44 | 10 to 100 | N#Cc1cnc(NC(=O)Nc2ccc(CCNCc3ccc(F)cc3)cc2)cn1 [Example 2, 1-(5-Cyano-pyrazin-2-yl)-3-{4-[2-(4-fluoro-benzylamino)-ethyl]-phenyl}-urea] | fold shift in the IC50 value of SN38 ([2]; test compound at 3 μM): three
4 | 179 | 100 to 1000 | N#Cc1cnc(NC(=O)Nc2ccc(CCNCc3ccc(F)cc3F)cc2)cn1 [Example 3, 1-(5-Cyano-pyrazin-2-yl)-3-{4-[2-(2,4-difluoro-benzylamino)-ethyl]-phenyl}-urea] | fold shift in the IC50 value of SN38 ([2]; test compound at 3 μM): three
5 | 38 | 10 to 100 | N#Cc1cnc(NC(=O)Nc2ccc(CCNCc3ccc(F)cc3F)c(Cl)c2)cn1 [Example 5, 1-{3-Chloro-4-[2-(2,4-difluoro-benzylamino)-ethyl]-phenyl}-3-(5-cyano-pyrazin-2-yl)-urea] | fold shift in the IC50 value of SN38 ([2]; test compound at 3 μM): three
6 | 26 | 10 to 100 | N#Cc1cnc(NC(=O)Nc2ccc(OCCNCc3ccc(F)cc3F)c(Cl)c2)cn1 [Example 6, 1-{3-Chloro-4-[2-(2,4-difluoro-benzylamino)-ethoxy]-phenyl}-3-(5-cyano-pyrazin-2-yl)-urea] | fold shift in the IC50 value of SN38 ([2]; test compound at 3 μM): three
7 | 16 | 10 to 100 | N#Cc1cnc(NC(=O)Nc2ccc(CCNCCc3ccc(F)cc3)c(Cl)c2)cn1 [Example 7, 1-(3-Chloro-4-(2-(4-fluorophenethylamino)ethyl)phenyl)-3-(5-cyanopyrazin-2-yl)urea] | fold shift in the IC50 value of SN38 ([2]; test compound at 1 μM): two
8 | 11 | 10 to 100 | N#Cc1cnc(NC(=O)Nc2ccc(CCNCc3ccc(Cl)cc3)c(Cl)c2)cn1 [Example 8, 1-{3-Chloro-4-[2-(4-chloro-benzylamino)-ethyl]-phenyl}-3-(5-cyano-pyrazin-2-yl)-urea] | fold shift in the IC50 value of SN38 ([2]; test compound at 3 μM): three; also recorded: greater than ten
9 | 13 | 10 to 100 | C[C@@H](NCCc1ccc(NC(=O)Nc2cnc(C#N)cn2)cc1Cl)c1ccc(F)cc1 [Example 24, 1-(3-Chloro-4-{2-[(R)-1-(4-fluoro-phenyl)-ethylamino]-ethyl}-phenyl)-3-(5-cyano-pyrazin-2-yl)-urea hydrochloride] | –
10 | 47 | 10 to 100 | N#Cc1cnc(NC(=O)Nc2ccc(CCNCCc3ccc(F)cc3F)c(Cl)c2)cn1 [Example 28, 1-(3-Chloro-4-{2-[2-(2,4-difluoro-phenyl)-ethylamino]-ethyl}-phenyl)-3-(5-cyano-pyrazin-2-yl)-urea] | –
11 | 6.4 | < 10 | COc1cc(CCNCc2ccc(F)cc2F)ccc1NC(=O)Nc1cnc(C#N)cn1 [Example 30, 1-(5-Cyano-pyrazin-2-yl)-3-{4-[2-(2,4-difluoro-benzylamino)-ethyl]-2-methoxy-phenyl}-urea] | –
12 | 27 | – | COc1cc(CCNCc2ccccc2)ccc1NC(=O)Nc1cnc(C)cn1 [Example 32, 1-[4-(2-Benzylamino-ethyl)-2-methoxy-phenyl]-3-(5-methyl-pyrazin-2-yl)-urea hydrochloride] | IC50 [1, 3]: 27 nM; fold improvement in potency against Chk-1 ([1]; relative to Compound 338 of WO02/070494 (alkylene chain 1 to 2 carbon atoms)): ~3 fold
13 | 10 | – | Cc1cc(NC(=O)Nc2cnc(C#N)cn2)ccc1CCNCc1ccc(F)cc1 [Example 36, 1-(5-Cyano-pyrazin-2-yl)-3-{4-[2-(4-fluoro-benzylamino)-ethyl]-3-methyl-phenyl}-urea hydrochloride] | –
14 | 3.3 | < 10 | COc1cc(CCN[C@H](C)c2ccc(F)cc2)ccc1NC(=O)Nc1cnc(C#N)cn1 [Example 43, 1-(5-Cyano-pyrazin-2-yl)-3-(4-{2-[(R)-1-(4-fluoro-phenyl)-ethylamino]-ethyl}-2-methoxy-phenyl)-urea] | –
15 | 1.2 | < 10 | CCOc1cc(CCNCc2ccc(F)cc2)c(Cl)cc1NC(=O)Nc1cnc(C#N)cn1 [Example 45, 1-{5-Chloro-2-ethoxy-4-[2-(4-fluoro-benzylamino)-ethyl]-phenyl}-3-(5-cyano-pyrazin-2-yl)-urea hydrochloride] | –
16 | 0.32 | < 10 | CC(C)Oc1cc(CCNCc2ccc(F)cc2)c(Cl)cc1NC(=O)Nc1cnc(C#N)cn1 [Example 46, 1-{5-Chloro-4-[2-(4-fluoro-benzylamino)-ethyl]-2-isopropoxy-phenyl}-3-(5-cyano-pyrazin-2-yl)-urea hydrochloride] | –
17 | 8.4 | < 10 | COc1cc(OCCNCc2ccc(F)cc2)c(Cl)cc1NC(=O)Nc1cnc(C#N)cn1 [Example 47, 1-{5-Chloro-4-[2-(4-fluoro-benzylamino)-ethoxy]-2-methoxy-phenyl}-3-(5-cyano-pyrazin-2-yl)-urea hydrochloride] | –
18 | 0.13 | < 10 | COc1cc(CCN[C@@H](C)c2ccc(N3CCNCC3)cc2)c(Cl)cc1NC(=O)Nc1cnc(C#N)cn1 [Example 52, 1-(5-Chloro-2-methoxy-4-{2-[(S)-1-(4-piperazin-1-yl-phenyl)-ethylamino]-ethyl}-phenyl)-3-(5-cyano-pyrazin-2-yl)-urea hydrochloride] | –
19 | 7.5 | < 10 | COc1cccc(CNCc2ccc(NC(=O)Nc3cnc(C#N)cn3)c(OC)c2)c1 [Example 61, 1-(5-Cyano-pyrazin-2-yl)-3-{2-methoxy-4-[(3-methoxy-benzylamino)-methyl]-phenyl}-urea hydrochloride] | –
20 | 7.8 | < 10 | COc1ccccc1CNCc1ccc(NC(=O)Nc2cnc(C#N)cn2)c(OC)c1 [Example 62, 1-(5-Cyano-pyrazin-2-yl)-3-{2-methoxy-4-[(2-methoxy-benzylamino)-methyl]-phenyl}-urea] | –
21 | 9.8 | < 10 | COc1cc(CNCc2ccc(F)cc2)c(Cl)cc1NC(=O)Nc1cnc(C#N)cn1 [Example 63, 1-{5-Chloro-4-[(4-fluoro-benzylamino)-methyl]-2-methoxy-phenyl}-3-(5-cyano-pyrazin-2-yl)-urea hydrochloride] | –
22 | 0.03 | < 10 | COc1cc(CCNCc2ccc(N3CCNCC3)cc2)c(Cl)cc1NC(=O)Nc1cnc(C#N)cn1 [Example 64, 1-{5-Chloro-2-methoxy-4-[2-(4-piperazin-1-yl-benzylamino)-ethyl]-phenyl}-3-(5-cyano-pyrazin-2-yl)-urea hydrochloride] | –
23 | 0.73 | < 10 | COc1cccc([C@H](C)NCCc2cc(OC)c(NC(=O)Nc3cnc(C#N)cn3)cc2Cl)c1 [Example 65, 1-(5-Chloro-2-methoxy-4-{2-[(S)-1-(3-methoxy-phenyl)-ethylamino]-ethyl}-phenyl)-3-(5-cyano-pyrazin-2-yl)-urea hydrochloride] | –

Row | Compound | IC50 [1, 4] [nM] | IC50 [1, 5] [nM] | further results
24 | COc1cc(CNCc2ccccc2)c(Cl)cc1NC(=O)Nc1cnc(C#N)cn1 [Example 56, 1-[4-(Benzylamino-methyl)-5-chloro-2-methoxy-phenyl]-3-(5-cyano-pyrazin-2-yl)-urea hydrochloride] | 2.8 | < 10 | –
25 | COc1cc(CNCc2cccc(F)c2)ccc1NC(=O)Nc1cnc(C#N)cn1 [Example 58, 1-(5-Cyano-pyrazin-2-yl)-3-{4-[(3-fluoro-benzylamino)-methyl]-2-methoxy-phenyl}-urea hydrochloride] | 21 | – | –
26 | COc1cc(CNCc2ccccc2F)ccc1NC(=O)Nc1cnc(C#N)cn1 [Example 59, 1-(5-Cyano-pyrazin-2-yl)-3-{4-[(2-fluoro-benzylamino)-methyl]-2-methoxy-phenyl}-urea hydrochloride] | 13 | – | –
